Measured values reported in patent US10053454B2 (Bristol-Myers Squibb Company, priority 2013, dated 2018).

Molecular target: BRD4 (Homo sapiens, UniProt O60885)
Experiment: Time Resolved Fluorescence Resonance Energy Transfer (TR-FRET) binding assay
Details: one of the FRET assays described (BRD4 construct not given)

| SMILES | IC50 [nM] |
| --- | --- |
| Cc1noc(C)c1-c1cc(C(N)=O)c2[nH]c3cc(C(=O)N4CCCCC4)ccc3c2c1 [Example 1, 3-(3,5-dimethyl-4-isoxazolyl)-7-(1-piperidinylcarbonyl)-9H-carbazole-1-carboxamide] | < 500 |
| Cc1noc(C)c1-c1cc(C(N)=O)c2c(c1)c1ccc(C(=O)N3C[C@@H](C)O[C@@H](C)C3)cc1n2CC1CC1 [Example 2, 9-(cyclopropylmethyl)-3-(3,5-dimethyl-4-isoxazolyl)-7-((cis-2,6-dimethyl-4-morpholinyl)carbonyl)-9H-carbazole-1-carboxamide] | < 50 |
| Cc1noc(C)c1-c1cc(C(N)=O)c2[nH]c3cc(C(=O)N4CCOCC4)ccc3c2c1 [Example 3, 3-(3,5-dimethyl-4-isoxazolyl)-7-(4-morpholinylcarbonyl)-9H-carbazole-1-carboxamide] | < 500 |
| Cc1noc(C)c1-c1cc(C(N)=O)c2c(c1)c1ccc(C(=O)N3CCOCC3)cc1n2CC1CC1 [Example 4, 9-(cyclopropylmethyl)-3-(3,5-dimethyl-4-isoxazolyl)-7-(4-morpholinylcarbonyl)-9H-carbazole-1-carboxamide] | < 50 |
| Cc1noc(C)c1-c1cc(C(N)=O)c2c(c1)c1ccc(C(=O)N3CCOCC3)cc1n2S(C)(=O)=O [Example 5, 3-(3,5-dimethyl-4-isoxazolyl)-9-(methylsulfonyl)-7-(4-morpholinylcarbonyl)-9H-carbazole-1-carboxamide] | < 50 |
| Cc1noc(C)c1-c1cc(C(N)=O)c2c(c1)c1ccc(C(=O)N3CCC(C#N)CC3)cc1n2S(C)(=O)=O [Example 6, 7-((4-cyano-1-piperidinyl)carbonyl)-3-(3,5-dimethyl-4-isoxazolyl)-9-(methylsulfonyl)-9H-carbazole-1-carboxamide] | < 50 |
| Cc1noc(C)c1-c1cc(C(N)=O)c2c(c1)c1ccc(C(=O)N3CC(F)C3)cc1n2S(C)(=O)=O [Example 7, 3-(3,5-dimethyl-4-isoxazolyl)-7-((3-fluoro-1-azetidinyl)carbonyl)-9-(methylsulfonyl)-9H-carbazole-1-carboxamide] | < 50 |
| Cc1noc(C)c1-c1cc(C(N)=O)c2c(c1)c1ccc(C(=O)N3CCC(F)CC3)cc1n2S(C)(=O)=O [Example 8, 3-(3,5-dimethyl-4-isoxazolyl)-7-((4-fluoro-1-piperidinyl)carbonyl)-9-(methylsulfonyl)-9H-carbazole-1-carboxamide] | < 500 |
| Cc1noc(C)c1-c1cc(C(N)=O)c2c(c1)c1ccc(C(=O)N3CCC(F)(F)CC3)cc1n2S(C)(=O)=O [Example 9, 7-((4,4-difluoro-1-piperidinyl)carbonyl)-3-(3,5-dimethyl-4-isoxazolyl)-9-(methylsulfonyl)-9H-carbazole-1-carboxamide] | < 50 |
| Cc1noc(C)c1-c1cc(C(N)=O)c2c(c1)c1ccc(C(=O)N3CCCC(N(C)C)C3)cc1n2S(C)(=O)=O (stereo not drawn) [Example 10, 7-((3-(dimethylamino)-1-piperidinyl)carbonyl)-3-(3,5-dimethyl-4-isoxazolyl)-9-(methylsulfonyl)-9H-carbazole-1-carboxamide] | < 50 |
| Cc1noc(C)c1-c1cc(C(N)=O)c2c(c1)c1ccc(C(=O)N3CC(F)(F)C3)cc1n2S(C)(=O)=O [Example 11, 7-((3,3-difluoro-1-azetidinyl)carbonyl)-3-(3,5-dimethyl-4-isoxazolyl)-9-(methylsulfonyl)-9H-carbazole-1-carboxamide] | < 50 |
| Cc1noc(C)c1-c1cc(C(N)=O)c2c(c1)c1ccc(C(=O)N(C)C)cc1n2S(C)(=O)=O [Example 12, 3-(3,5-dimethyl-4-isoxazolyl)-N7,N7-dimethyl-9-(methylsulfonyl)-9H-carbazole-1,7-dicarboxamide] | < 50 |
| Cc1noc(C)c1-c1cc(C(N)=O)c2c(c1)c1ccc(C(=O)N3CCCC(F)C3)cc1n2S(C)(=O)=O (stereo not drawn) [Example 13, 3-(3,5-dimethyl-4-isoxazolyl)-7-((3-fluoro-1-piperidinyl)carbonyl)-9-(methylsulfonyl)-9H-carbazole-1-carboxamide] | < 50 |
| COC1CN(C(=O)c2ccc3c4cc(-c5c(C)noc5C)cc(C(N)=O)c4n(S(C)(=O)=O)c3c2)C1 [Example 14, 3-(3,5-dimethyl-4-isoxazolyl)-7-((3-methoxy-1-azetidinyl)carbonyl)-9-(methylsulfonyl)-9H-carbazole-1-carboxamide] | < 50 |
| Cc1noc(C)c1-c1cc(C(N)=O)c2c(c1)c1ccc(C(=O)N3CCS(=O)(=O)CC3)cc1n2S(C)(=O)=O [Example 15, 3-(3,5-dimethyl-4-isoxazolyl)-7-((1,1-dioxido-4-thiomorpholinyl)carbonyl)-9-(methylsulfonyl)-9H-carbazole-1-carboxamide] | < 5000 |
| Cc1noc(C)c1-c1cc(C(N)=O)c2c(c1)c1ccc(C(=O)N3C(C)(C)CC(O)CC3(C)C)cc1n2S(C)(=O)=O [Example 16, 3-(3,5-dimethyl-4-isoxazolyl)-7-((4-hydroxy-2,2,6,6-tetramethyl-1-piperidinyl)carbonyl)-9-(methylsulfonyl)-9H-carbazole-1-carboxamide] | < 50 |
| Cc1noc(C)c1-c1cc(C(N)=O)c2c(c1)c1ccc(C(=O)N3CCCOCC3)cc1n2S(C)(=O)=O [Example 17, 3-(3,5-dimethyl-4-isoxazolyl)-9-(methylsulfonyl)-7-(1,4-oxazepan-4-ylcarbonyl)-9H-carbazole-1-carboxamide] | < 50 |

| SMILES | IC50 [nM] |
| --- | --- |
| Cc1noc(C)c1-c1cc(C(N)=O)c2c(c1)c1ccc(C(=O)N3CCC(N(C)C)C3)cc1n2S(C)(=O)=O (stereo not drawn) [Example 18, 7-((3-(dimethylamino)-1-pyrrolidinyl)carbonyl)-3-(3,5-dimethyl-4-isoxazolyl)-9-(methylsulfonyl)-9H-carbazole-1-carboxamide] | < 50 |
| Cc1noc(C)c1-c1cc(C(N)=O)c2c(c1)c1ccc(C(=O)N3CNC(=O)C3)cc1n2S(C)(=O)=O [Example 19, 3-(3,5-dimethyl-4-isoxazolyl)-9-(methylsulfonyl)-7-((4-oxo-1-imidazolidinyl)carbonyl)-9H-carbazole-1-carboxamide] | < 500 |
| Cc1noc(C)c1-c1cc(C(N)=O)c2c(c1)c1ccc(C(=O)N3CCC(C#N)CC3)cc1n2S(=O)(=O)C1CC1 [Example 20, 7-((4-cyano-1-piperidinyl)carbonyl)-9-(cyclopropylsulfonyl)-3-(3,5-dimethyl-4-isoxazolyl)-9H-carbazole-1-carboxamide] | < 50 |
| Cc1noc(C)c1-c1cc(C(N)=O)c2c(c1)c1ccc(C(=O)N3CC(F)C3)cc1n2S(=O)(=O)C1CC1 [Example 21, 9-(cyclopropylsulfonyl)-3-(3,5-dimethyl-4-isoxazolyl)-7-((3-fluoro-1-azetidinyl)carbonyl)-9H-carbazole-1-carboxamide] | < 50 |
| Cc1noc(C)c1-c1cc(C(N)=O)c2c(c1)c1ccc(C(=O)N3CCCC(F)C3)cc1n2S(=O)(=O)C1CC1 (stereo not drawn) [Example 23, 9-(cyclopropylsulfonyl)-3-(3,5-dimethyl-4-isoxazolyl)-7-((3-fluoro-1-piperidinyl)carbonyl)-9H-carbazole-1-carboxamide] | < 50 |
| Cc1noc(C)c1-c1cc(C(N)=O)c2c(c1)c1ccc(C(=O)N3CC(F)(F)C3)cc1n2S(=O)(=O)C1CC1 [Example 24, 9-(cyclopropylsulfonyl)-7-((3,3-difluoro-1-azetidinyl)carbonyl)-3-(3,5-dimethyl-4-isoxazolyl)-9H-carbazole-1-carboxamide] | < 50 |
| Cc1noc(C)c1-c1cc(C(N)=O)c2c(c1)c1ccc(C(=O)N3CCCOCC3)cc1n2S(=O)(=O)C1CC1 [Example 25, 9-(cyclopropylsulfonyl)-3-(3,5-dimethyl-4-isoxazolyl)-7-(1,4-oxazepan-4-ylcarbonyl)-9H-carbazole-1-carboxamide] | < 50 |
| Cc1noc(C)c1-c1cc(C(N)=O)c2c(c1)c1ccc(C(=O)N3CCC(F)(F)CC3)cc1n2S(=O)(=O)C1CC1 [Example 26, 9-(cyclopropylsulfonyl)-7-((4,4-difluoro-1-piperidinyl)carbonyl)-3-(3,5-dimethyl-4-isoxazolyl)-9H-carbazole-1-carboxamide] | < 50 |
| Cc1noc(C)c1-c1cc(C(N)=O)c2c(c1)c1ccc(NC(=O)OC(C)(C)C)cc1n2CC1CC1 [Example 27, tert-butyl(8-carbamoyl-9-(cyclopropylmethyl)-6-(3,5-dimethyl-4-isoxazolyl)-9H-carbazol-2-yl)carbamate] | < 500 |
| Cc1noc(C)c1-c1cc(C(N)=O)c2c(c1)c1ccc(N)cc1n2CC1CC1 [Example 28, 7-amino-9-(cyclopropylmethyl)-3-(3,5-dimethyl-4-isoxazolyl)-9H-carbazole-1-carboxamide] | < 500 |
| CC(=O)Nc1ccc2c3cc(-c4c(C)noc4C)cc(C(N)=O)c3n(CC3CC3)c2c1 [Example 29, 7-acetamido-9-(cyclopropylmethyl)-3-(3,5-dimethyl-4-isoxazolyl)-9H-carbazole-1-carboxamide] | < 500 |
| Cc1noc(C)c1-c1cc(C(N)=O)c2c(c1)c1ccc(N(c3nccs3)c3nccs3)cc1n2CC1CC1 [Example 30, 9-(cyclopropylmethyl)-3-(3,5-dimethyl-4-isoxazolyl)-7-(di-1,3-thiazol-2-ylamino)-9H-carbazole-1-carboxamide] | < 500 |
| CCNC(=O)Nc1ccc2c3cc(-c4c(C)noc4C)cc(C(N)=O)c3n(CC3CC3)c2c1 [Example 31, 9-(cyclopropylmethyl)-3-(3,5-dimethyl-4-isoxazolyl)-7-((ethylcarbamoyl)amino)-9H-carbazole-1-carboxamide] | < 500 |
| CCOC(=O)Nc1ccc2c3cc(-c4c(C)noc4C)cc(C(N)=O)c3n(CC3CC3)c2c1 [Example 32, Ethyl(8-carbamoyl-9-(cyclopropylmethyl)-6-(3,5-dimethyl-4-isoxazolyl)-9H-carbazol-2-yl)carbamate] | < 5000 |
| Cc1noc(C)c1-c1cc(C(N)=O)c2c(c1)c1ccc(Br)cc1n2CC1CC1 [Example 34, 7-bromo-9-(cyclopropylmethyl)-3-(3,5-dimethyl-4-isoxazolyl)-9H-carbazole-1-carboxamide] | < 500 |
| Cc1noc(C)c1-c1cc(C(N)=O)c2c(c1)c1cc(Br)c(Br)cc1n2CC1CC1 [Example 35, 6,7-dibromo-9-(cyclopropylmethyl)-3-(3,5-dimethyl-4-isoxazolyl)-9H-carbazole-1-carboxamide] | < 500 |
